Laboratory results as given in US20110287100A1, “Galenic Formulations of Organic Compounds” (priority 2009, published 2011).
Like-named read-outs stand apart in the source and are kept apart here.

Assays:
[1] = Water solubility; assay type: physicochemical; conditions: between pH 1 and 8
[2] = Pharmacokinetics in pediatric patients, open label multiple dose study; conditions: human, in vivo; for AUC: read-out: AUCtau, Mean; for Tmax: read-out: Tmax, Median; for half-life: read-out: T½, Mean (converted)
Method: An open label, multiple dose pharmacokinetic and pharmacodynamic study was performed in 24 pediatric patients, ages 6-17 years. […] Blood samples were collected on days one and eight and pharmacokinetics were assessed using a non-compartmental analysis approach.

[3] = 2 mg/kg, 6-11 yrs old, 2 mg/kg, Day 1
[4] = 2 mg/kg, 6-11 yrs old, 2 mg/kg, Day 8
[5] = 2 mg/kg, 12-17 yrs old, 2 mg/kg, Day 1
[6] = 2 mg/kg, 12-17 yrs old, 2 mg/kg, Day 8
[7] = 6 mg/kg, 6-11 yrs old, 6 mg/kg, Day 1
[8] = 6 mg/kg, 6-11 yrs old, 6 mg/kg, Day 8
[9] = 6 mg/kg, 12-17 yrs old, 6 mg/kg, Day 1
[10] = 6 mg/kg, 12-17 yrs old, 6 mg/kg, Day 8

solubility [1]: > 350 mg/mL
Cmax [2, 3]: 39 ng/mL
AUC [2, 3]: 149 ng·h/mL
Tmax [2, 3]: 0.5 h
Cmax [2, 4]: 48 ng/mL
AUC [2, 4]: 240 ng·h/mL
Tmax [2, 4]: 0.5 h
half-life [2, 4]: 2400 min
Cmax [2, 5]: 136 ng/mL
AUC [2, 5]: 391 ng·h/mL
Tmax [2, 5]: 1 h
Cmax [2, 6]: 279 ng/mL
AUC [2, 6]: 846 ng·h/mL
Tmax [2, 6]: 1 h
half-life [2, 6]: 2400 min
Cmax [2, 7]: 323 ng/mL
AUC [2, 7]: 1840 ng·h/mL
Tmax [2, 7]: 1.3 h
Cmax [2, 8]: 259 ng/mL
AUC [2, 8]: 956 ng·h/mL
Tmax [2, 8]: 0.8 h
half-life [2, 8]: 2160 min
Cmax [2, 9]: 424 ng/mL
AUC [2, 9]: 1800 ng·h/mL
Tmax [2, 9]: 1.8 h
Cmax [2, 10]: 486 ng/mL
AUC [2, 10]: 2090 ng·h/mL
Tmax [2, 10]: 2 h
half-life [2, 10]: 2520 min
Compound: COCCCOc1cc(C[C@@H](C[C@H](N)[C@@H](O)C[C@H](C(=O)NCC(C)(C)C(N)=O)C(C)C)C(C)C)ccc1OC [Aliskiren, 2(S),4(S),5(S),7(S)—N-(3-amino-2,2-dimethyl-3-oxopropyl)-2,7-di(1-methylethyl)-4-hydroxy-5-amino-8-[4-methoxy-3-(3-methoxy-propoxy)phenyl]-octanamide]
